In the assay the test system is kynurenine production in IFN-γ-treated KATO-III cells. Briefly: Inhibitory activity on kynurenine production (Test Example 1). In kind it is cell-based. The following applies: Homo sapiens, IFN-γ treatment, culture for 96 hours, read-out: IC50 value, inhibition of kynurenine production. The method, then:
This assay was performed according to a method modified from the method described in the Journal of Biological Chemistry (J. Biol. Chem.), vol. 263, pp. 2041-2048 (1988). Culture of KATO-III derived from human gastric cancer cells was performed by use of RPMI 1640 (GIBCO, 11875) supplemented with 10 vol % FBS (GIBCO, 10091-148, lot. 665285). 1 μL of a DMSO solution of the test substance was diluted with 199 μL of the culture medium, and the diluted solution was added to wells of a 384 well plate (10 μL/well). Then, IFN-γ (Sigma, 1-3265) was added to the culture medium so that the concentration of IFN-γ was 31.25 ng/mL, and the KATO-III cells were suspended at 50,000 cells/ml, in the culture medium. 40 μL of the suspension was added to each well (2,000 cells/well), and culture of the KATO-III cells was performed at 37° C. under a 5% CO2 atmosphere for 96 hours. The final concentration of DMSO was limited to 0.1 vol % or less so that DMSO itself might not affect the kynurenine concentration measured by this assay. After the culture, 10 μL of a 30 w/v % aqueous trichloroacetic acid solution was added to each well, and incubation was performed at 65° C. for 30 minutes. The plate was centrifuged at 2,500×g for 5 minutes, and then 15 μL of the supernatant in each well was transferred into another 384 well plate. To each of the transferred supernatants, 15 μL of a 2 w/v % solution of p-dimethylaminobenzaldehyde in acetic acid was added, incubation was performed at 65° C. for 20 minutes, and then the absorbance at 480 nm was measured.
[formula] Sample: the absorbance value of the well to which a DMSO solution containing the test substance was added and in which cells were treated with IFN-γ. Blank: the absorbance value of the well to which only DMSO, not the test substance was added and in which cells were treated with IFN-γ. Control: the absorbance value of the well to which only DMSO, not the test substance was added and in which cells were not treated with IFN-γ.
In this assay, expression of IDO in KATO-III cells is induced by IFN-γ treatment and then kynurenine in the culture medium is quantified. It is known that the kynurenine concentration in a culture medium increases in proportion to the enzymatic activity of intracellular IDO (for example, the Journal of Biological Chemistry (J. Biol. Chem.), vol. 263, pp. 2041-2048 (1988)). […] It is known that kynurenine production is inhibited by IDO inhibitors (for example, the Journal of Clinical Investigation (J. Clin. Invest.), vol. 117, No. 5, pp. 1147-1154 […]), and thus it is expected that Compound (I) also has an inhibitory effect on IDO.
With `O=S(=O)(Nc1nc2ccccc2nc1OCc1cccc(C(F)(F)F)c1)c1cccc(Cl)c1Cl` [Compound 18, 2,3-dichloro-N-{3-[(3-trifluoromethylphenyl)methoxy]-quinoxalin-2-yl}benzenesulfonamide], the IC50 is less than 1000 nM. Turning to `CCCS(=O)(=O)Nc1nc2ccccc2nc1OC(c1cccc(C#N)c1)C(F)(F)F` (centres unmarked) [Compound 290, N-{3-[1-(3-cyanophenyl)-2,2,2-trifluoroethoxy]quinoxalin-2-yl}propane-1-sulfonamide], the IC50 is less than 1000 nM. For `Cc1noc(C)c1S(=O)(=O)Nc1nc2ccccc2nc1OC(c1ccc(C#N)cc1)C(F)(F)F` (centres unmarked) [Compound 201, N-{3-[1-(4-cyanophenyl)-2,2,2-trifluoroethoxy]quinoxalin-2-yl}-3,5-dimethylisoxazole-4-sulfonamide] the value was less than 1000 nM. Under `CC1(C(Oc2nc3ccccc3nc2NS(=O)(=O)c2ccccc2Cl)C(F)(F)F)CCOCC1` (centres unmarked) [Compound 121, 2-chloro-N-{3-[2,2,2-trifluoro-1-(4-methyltetrahydro-2H-pyran-4-yl]ethoxy}quinoxalin-2-yl)benzenesulfonamide] stands less than 1000 nM; under `Cc1nn(C)c(Cl)c1S(=O)(=O)Nc1nc2ccccc2nc1OC(c1cc2ccccc2n1C)C(F)(F)F` (centres unmarked) [Compound 129, 5-chloro-1,3-dimethyl-N-{3-[2,2,2-trifluoro-1-(1-methyl-1H-indol-2-yl)ethoxy]quinoxalin-2-yl}-1H-pyrazole-4-sulfonamide], less than 1000 nM; under `CCCS(=O)(=O)Nc1nc2ccccc2nc1OC(c1ccc(C#N)cc1)C(F)(F)F` (centres unmarked) [Compound 202, N-{3-[1-(4-cyanophenyl)-2,2,2-trifluoroethoxy]quinoxalin-2-yl}propane-1-sulfonamide], less than 1000 nM.

On to `CCn1cncc1C(Oc1nc2ccccc2nc1NS(=O)(=O)c1ccccc1Cl)C(F)(F)F` (centres unmarked) [Compound 108, 2-chloro-N-{3-[2,2,2-trifluoro-1-(1-ethyl-1H-imidazol-5-yl)ethoxy]quinoxalin-2-yl}benzenesulfonamide], for which the IC50 is less than 1000 nM. For `CC(C)(C#N)C(Oc1nc2ccccc2nc1NS(=O)(=O)c1ccccc1Cl)c1cccnc1` (centres unmarked) [Compound 67, 2-chloro-N-{3-[2-cyano-2-methyl-1-(pyridin-3-yl)propoxy]-quinoxalin-2-yl}benzenesulfonamide] the value was less than 1000 nM; for `CCCS(=O)(=O)Nc1nc2ccccc2nc1OC(c1cccnc1)C1(F)CCOCC1` (centres unmarked) [Compound 94, N-{3-[4-fluorotetrahydropyran-4-yl(pyridin-3-yl)methoxy]-quinoxalin-2-yl}propane-1-sulfonamide], less than 1000 nM. In the case of `O=S(=O)(Nc1nc2cc3ccccc3cc2nc1OC(c1cccnc1)C(F)(F)F)c1ccccc1Cl` (centres unmarked) [Compound 263, 2-chloro-N-{3-[2,2,2-trifluoro-1-(pyridin-3-yl)ethoxy]-benzo[g]quinoxalin-2-yl}benzenesulfonamide], the IC50 was less than 1000 nM. For `CCCNS(=O)(=O)Nc1nc2ccccc2nc1OC(C1CCOCC1)C(F)(F)F` (centres unmarked) [Compound 216, N-propyl-N′-{3-[2,2,2-trifluoro-1-(tetrahydro-2H-pyran-4-yl)ethoxy]quinoxalin-2-yl}sulfuric diamide] the value was less than 1000 nM; for `CCCS(=O)(=O)Nc1nc2ccccc2nc1OC(C1CCN(C)CC1)C(F)(F)F` (centres unmarked) [Compound 326, N-{3-[2,2,2-trifluoro-1-(1-methylpiperidin-4-yl)ethoxy]-quinoxalin-2-yl}propane-1-sulfonamide], 1000 to 10000 nM; for `C=CCS(=O)(=O)Nc1nc2ccccc2nc1OC(c1cccnc1)C(F)(F)F` (centres unmarked) [Compound 304, N-{3-[2,2,2-trifluoro-1-(pyridin-3-yl)ethoxy]quinoxalin-2-yl}-2-propene-1-sulfonamide], less than 1000 nM. For `O=S(=O)(Nc1nc2ccccc2nc1OC(c1cccnc1)C(F)(F)F)c1cc2ccccc2s1` (centres unmarked) [Compound 164, N-{3-[2,2,2-trifluoro-1-(pyridin-3-yl)ethoxy]quinoxalin-2-yl}benzo[b]thiophene-2-sulfonamide] the value was less than 1000 nM.

(Values after patent publication US8673908B2, “Kynurenine production inhibitor” (Kyowa Hakko Kirin Co., Ltd., priority 2008, dated 2014).)
